Reference: patent US11180482B2, “Anilinopyrimidines as haematopoietic progenitor kinase 1 (HPK1) inhibitors” (Ariad Pharmaceuticals, Inc., priority 2016, dated 2021)

What follows are molecules tested against Wild Type HPK1 (MAP4K1) Kinase (Homo sapiens (Human), UniProt Q92918) (assay: HPK1 Assay (Caliper EZ reader, fluorescein tagged peptide substrate)). Details: ATP 500 micromolar, kinase 6 nM, pH 7.4.
Type: biochemical
Protocol: The enzymatic activity of Wild Type HPK1 (MAP4K1) Kinase was measured in the presence or absence of an inhibitor compound of the present disclosure by preparation of a reaction mixture containing a fluorescein tagged peptide (2 micromolar final concentration), ATP (Adenosine Triphosphate, 500 micromolar final concentration) and Wild Type kinase (6 nM final concentration) in a buffer system comprising 50 mM HEPES (Buffer), 3 mM MgCl2, 5% w/v Trehalose, 0.01% Brij 35 (Detergent), 0.1% Pluronic F127 (Surfactant), 0.1 mM EDTA (Ethylenediaminetetraacetic acid), 0.1 mM EGTA (ethylene glycol-bis(β-aminoethyl ether)-N,N,N′,N′-tetraacetic acid) and 1 mM DTT (Dithiothreitol) and at a pH of 7.4. The reactions were quenched by the addition of EDTA to a final concentration of 25 mM. A Caliper EZ reader was used to measure the extent of substrate to product conversion.
The peptide substrate used in the HPK1 assay was designed based on the amino acid sequence surrounding serine residue 376 of SLP76-Lymphocyte cytosolic protein 2 (a known intracellular substrate of HPK1). This sequence SSFPQSAsLPPYFSQ was modified as follows for use in Caliper assays of HPK1: the serine residues on either side of serine 376 were replaced with alanine, three lysine residues were added at the […] and a fluorescein tag (FAM) was attached to the […] to produce the sequence, FAM-FPQAAsLPPYFAKKK.

Wild Type HPK1 (MAP4K1) Kinase, sequence (Q92918 whole entry, species assumed): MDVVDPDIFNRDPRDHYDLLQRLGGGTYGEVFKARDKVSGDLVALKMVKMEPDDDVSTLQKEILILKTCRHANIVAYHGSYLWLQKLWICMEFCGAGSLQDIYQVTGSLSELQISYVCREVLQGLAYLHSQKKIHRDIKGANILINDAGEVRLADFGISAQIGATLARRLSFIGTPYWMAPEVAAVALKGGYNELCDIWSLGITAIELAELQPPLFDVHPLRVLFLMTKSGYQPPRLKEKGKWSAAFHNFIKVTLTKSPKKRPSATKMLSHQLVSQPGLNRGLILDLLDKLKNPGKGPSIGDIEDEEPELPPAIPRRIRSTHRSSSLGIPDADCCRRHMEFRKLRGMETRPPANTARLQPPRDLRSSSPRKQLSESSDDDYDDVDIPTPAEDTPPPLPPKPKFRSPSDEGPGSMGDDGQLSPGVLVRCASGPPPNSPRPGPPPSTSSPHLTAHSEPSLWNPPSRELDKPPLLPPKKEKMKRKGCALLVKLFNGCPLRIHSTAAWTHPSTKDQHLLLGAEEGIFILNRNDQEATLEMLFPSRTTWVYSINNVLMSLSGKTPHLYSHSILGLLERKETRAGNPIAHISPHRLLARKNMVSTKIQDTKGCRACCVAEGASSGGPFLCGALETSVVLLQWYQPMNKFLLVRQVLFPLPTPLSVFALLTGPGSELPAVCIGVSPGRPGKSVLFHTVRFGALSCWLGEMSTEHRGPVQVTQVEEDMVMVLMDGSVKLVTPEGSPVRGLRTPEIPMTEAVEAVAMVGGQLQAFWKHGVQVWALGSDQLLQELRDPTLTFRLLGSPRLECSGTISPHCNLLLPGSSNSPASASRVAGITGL

How did the IC50 turn out when `CN1CCc2c(Br)cc(Nc3ncc(Cl)c(Nc4ccccc4P(C)(C)=O)n3)cc2C1` [Example I-24, (2-((2-((5-bromo-2-methyl-1,2,3,4-tetrahydroisoquinolin-7-yl)amino)-5-chloropyrimidin-4-yl)amino)phenyl)dimethylphosphine oxide] was run?
The IC50 was < 0.005 µM.

For `COc1cc2c(cc1Nc1nccc(Nc3ccccc3P(C)(C)=O)n1)CN(C)CC2` [Example I-25, (2-((2-((6-methoxy-2-methyl-1,2,3,4-tetrahydroisoquinolin-7-yl)amino)pyrimidin-4-yl)amino)phenyl)dimethylphosphine oxide], which IC50 is on record?
Its IC50 is 0.1 to 10 µM.

For `COc1cc2c(cc1Nc1ncc(F)c(Nc3ccccc3P(C)(C)=O)n1)CN(C)CC2` [Example I-26, (2-((5-fluoro-2-((6-methoxy-2-methyl-1,2,3,4-tetrahydroisoquinolin-7-yl)amino)pyrimidin-4-yl)amino)phenyl)dimethylphosphine oxide], which IC50 is on record?
The IC50 was 0.01 to 0.1 µM.

Which IC50 does the source give for `COc1cc2c(cc1Nc1ncc(C(F)(F)F)c(Nc3ccccc3P(C)(C)=O)n1)CN(C)CC2` [Example I-27, (2-((2-((6-methoxy-2-methyl-1,2,3,4-tetrahydroisoquinolin-7-yl)amino)-5-(trifluoromethyl)pyrimidin-4-yl)amino)phenyl)dimethylphosphine oxide] here?
The IC50 was 0.005 to 0.01 µM.

With `COc1cc2c(cc1Nc1ncc(Cl)c(Nc3ccccc3P(C)(C)=O)n1)C(C)(C)N(C)CC2` [Example I-28, (2-((5-chloro-2-((6-methoxy-1,1,2-trimethyl-1,2,3,4-tetrahydroisoquinolin-7-yl)amino)pyrimidin-4-yl)amino)phenyl)dimethylphosphine oxide] as the molecule, how does the IC50 read?
Its IC50 is 0.01 to 0.1 µM.

`COc1cc2c(cc1Nc1ncc(Cl)c(Nc3ccccc3P(C)(C)=O)n1)C(C)N(C)CC2` (stereo not shown) [Example I-29, (2-((5-chloro-2-((6-methoxy-1,2-dimethyl-1,2,3,4-tetrahydroisoquinolin-7-yl)amino)pyrimidin-4-yl)amino)phenyl)dimethylphosphine oxide] was tested. Which IC50 did it give?
The IC50 was < 0.005 µM.

How did the IC50 turn out when `COc1cc2c(cc1Nc1ncc(Cl)c(Nc3ccccc3P(C)(C)=O)n1)C(=O)NCC2` [Example I-33, 7-((5-chloro-4-((2-(dimethylphosphoryl)phenyl)amino)pyrimidin-2-yl)amino)-6-methoxy-3,4-dihydroisoquinolin-1(2H)-one] was run?
The IC50 was 0.1 to 10 µM.

Which IC50 does the source give for `COc1cc2c(cc1Nc1ncc(Cl)c(Nc3ccccc3P(C)(C)=O)n1)C(=O)N(C)CCC2` [Example I-34, 8-((5-chloro-4-((2-(dimethylphosphoryl)phenyl)amino)pyrimidin-2-yl)amino)-7-methoxy-2-methyl-2,3,4,5-tetrahydro-1H-benzo[c]azepin-1-one] here?
The IC50 was 0.1 to 10 µM.

`COc1cc2c(cc1Nc1ncc(Cl)c(Nc3ccccc3P(C)(C)=O)n1)CN(C)CCC2` [Example I-35, (2-((5-chloro-2-((7-methoxy-2-methyl-2,3,4,5-tetrahydro-1H-benzo[c]azepin-8-yl)amino)pyrimidin-4-yl)amino)phenyl)dimethylphosphine oxide] was tested. Which IC50 did it give?
Its IC50 is 0.1 to 10 µM.

For `CCOc1cc2c(cc1Nc1ncc(Cl)c(Nc3ccccc3P(C)(C)=O)n1)CN(C)CC2` [Example I-36, (2-((5-chloro-2-((6-ethoxy-2-methyl-1,2,3,4-tetrahydroisoquinolin-7-yl)amino)pyrimidin-4-yl)amino)phenyl)dimethylphosphine oxide], which IC50 is on record?
Its IC50 is 0.01 to 0.1 µM.

For `CP(C)(=O)c1ccccc1Nc1nc(Nc2cc3c(cc2C(F)(F)F)CCNC3)ncc1Cl` [Example I-37, (2-((5-Chloro-2-((6-(trifluoromethyl)-1,2,3,4-tetrahydroisoquinolin-7-yl)amino)pyrimidin-4-yl)amino)phenyl)dimethylphosphine oxide], which IC50 is on record?
Its IC50 is 0.01 to 0.1 µM.

`COc1cc2c(cc1Nc1ncc(Cl)c(Nc3ccccc3P(C)(C)=O)n1)CCNC2` [Example I-38, (2-((5-chloro-2-((7-methoxy-1,2,3,4-tetrahydroisoquinolin-6-yl)amino)pyrimidin-4-yl)amino)phenyl)dimethylphosphine oxide] was tested. Which IC50 did it give?
The IC50 was < 0.005 µM.

`[2H]C1([2H])NCCc2cc(OC)c(Nc3ncc(Cl)c(Nc4ccccc4P(C)(C)=O)n3)cc21` [Example I-39, (2-((5-chloro-2-((6-methoxy-1,2,3,4-tetrahydroisoquinolin-7-yl-1,1-d2)amino)pyrimidin-4-yl)amino)phenyl)dimethyl-phosphine oxide] was tested. Which IC50 did it give?
The IC50 was < 0.005 µM.

For `COc1cc2c(cc1Nc1ncc(Cl)c(Nc3ccccc3P(C)(C)=O)n1)CNCC2(C)C` [Example I-40, (2-((5-chloro-2-((6-methoxy-4,4-dimethyl-1,2,3,4-tetrahydroisoquinolin-7-yl)amino)pyrimidin-4-yl)amino)phenyl)dimethylphosphine oxide], which IC50 is on record?
Its IC50 is < 0.005 µM.

`COc1cc2c(cc1Nc1ncc(Cl)c(Nc3ccccc3P(C)(C)=O)n1)CNCC2` [Example I-41, (2-((5-chloro-2-((6-methoxy-1,2,3,4-tetrahydroisoquinolin-7-yl)amino)pyrimidin-4-yl)amino)phenyl)dimethylphosphine oxide] was tested. Which IC50 did it give?
The IC50 was < 0.005 µM.

`COc1cc2c(cc1Nc1ncc(Cl)c(Nc3ccccc3P(C)(C)=O)n1)CN(C1COC1)CC2` [Example I-42, (2-((5-Chloro-2-((6-methoxy-2-(oxetan-3-yl)-1,2,3,4-tetrahydroisoquinolin-7-yl)amino)pyrimidin-4-yl)amino)phenyl)dimethylphosphine oxide] was tested. Which IC50 did it give?
The IC50 was 0.01 to 0.1 µM.

How did the IC50 turn out when `[2H]C1([2H])c2cc(Nc3ncc(Cl)c(Nc4ccccc4P(C)(C)=O)n3)c(OC)cc2CCN1C(C)C` [Example I-43, (2-((5-chloro-2-((2-isopropyl-6-methoxy-1,2,3,4-tetrahydroiso-quinolin-7-yl-1,1-d2)amino)pyrimidin-4-yl)amino)phenyl)-dimethylphosphine oxide] was run?
The IC50 was < 0.005 µM.

Which IC50 does the source give for `COc1cc2c(cc1Nc1ncc(Cl)c(Nc3ccccc3P(C)(C)=O)n1)CN(C)CC2(C)C` [Example I-44, (2-((5-chloro-2-((6-methoxy-2,4,4-trimethyl-1,2,3,4-tetrahydroisoquinolin-7-yl)amino)pyrimidin-4-yl)amino)phenyl)-dimethylphosphine oxide] here?
Its IC50 is 0.005 to 0.01 µM.

Which IC50 does the source give for `CN1CCc2cc(C(F)(F)F)c(Nc3ncc(Cl)c(Nc4ccccc4P(C)(C)=O)n3)cc2C1` [Example I-45, (2-((5-chloro-2-((2-methyl-6-(trifluoromethyl)-1,2,3,4-tetrahydroiso-quinolin-7-yl)amino)-pyrimidin-4-yl)-amino)phenyl)dimethylphosphine oxide] here?
The IC50 was 0.1 to 10 µM.

For `C=Cc1cnc(Nc2cc3c(cc2OC)CCN(C)C3)nc1Nc1ccccc1P(C)(C)=O` [Example I-46, (2-((2-((6-Methoxy-2-methyl-1,2,3,4-tetrahydroisoquinolin-7-yl)amino)-5-vinylpyrimidin-4-yl)amino)phenyl)dimethylphosphine oxide], which IC50 is on record?
The IC50 was < 0.005 µM.

How did the IC50 turn out when `COc1cc2c(cc1Nc1ncc(-c3cnn(C)c3)c(Nc3ccccc3P(C)(C)=O)n1)CN(C)CC2` [Example I-47, (2-((2-((6-methoxy-2-methyl-1,2,3,4-tetrahydroisoquinolin-7-yl)amino)-5-(1-methyl-1H-pyrazol-4-yl)pyrimidin-4-yl)amino)phenyl)dimethylphosphine oxide] was run?
Its IC50 is 0.1 to 10 µM.

`CCc1cnc(Nc2cc3c(cc2OC)CCN(C)C3)nc1Nc1ccccc1P(C)(C)=O` [Example I-48, (2-((5-Ethyl-2-((6-methoxy-2-methyl-1,2,3,4-tetrahydroisoquinolin-7-yl)amino)pyrimidin-4-yl)amino)phenyl)dimethylphosphine oxide] was tested. Which IC50 did it give?
The IC50 was 0.005 to 0.01 µM.

How did the IC50 turn out when `COc1cc2c(cc1Nc1ncc(Cl)c(Nc3ccccc3S(=O)(=O)C(C)C)n1)CN(C)CC2` [II-1, 5-chloro-N^4-(2-(isopropylsulfonyl)phenyl)-N^2-(6-methoxy-2-methyl-1,2,3,4-tetrahydroisoquinolin-7-yl)pyrimidine-2,4-diamine] was run?
Its IC50 is < 0.005 µM.

`COc1cc2c(cc1Nc1ncc(Cl)c(Nc3ccccc3S(=O)(=O)N(C)C)n1)CN(C)CC2` [II-2, 2-((5-chloro-2-((6-methoxy-2-methyl-1,2,3,4-tetrahydroisoquinolin-7-yl)amino)pyrimidin-4-yl)amino) N,N-dimethylbenzenesulfonamide] was tested. Which IC50 did it give?
The IC50 was < 0.005 µM.

With `CNC(=O)c1ccccc1Nc1nc(Nc2cc3c(cc2OC)CCN(C)C3)ncc1Cl` [II-3, 2-((5-chloro-2-((6-methoxy-2-methyl-1,2,3,4-tetrahydroisoquinolin-7-yl)amino)pyrimidin-4-yl)amino)-N-methylbenzamide] as the molecule, how does the IC50 read?
The IC50 was 0.005 to 0.01 µM.
